Among the data in patent publication US10100058B2, “Fused heterocyclic compounds as CaM kinase inhibitors” (Gilead Sciences, Inc., priority 2016, dated 2018) are IC50 values, retold here.

This assay deals with recombinant CaMKIIδ (Homo sapiens (Human), UniProt Q13557). Description: CaMKIIδ biochemical assay (HTRF). To be noted: 10 pM CaMKIIδ, 110 nM calmodulin, 12 μM ATP, 1 hour; read-out: CAMKIID-HTRF-384V2 (IC50 - nM). How it is done:
CaMKIIδ Biochemical Assay
The biochemical activity of recombinant CaMKIIδ was measured by monitoring the phosphorylation of a target peptide using Homogenous Time Resolved Fluorescence (HTRF) technology from CisBio Bioassays.
Take `CCN(CC)[C@@H](CO)CNC(=O)c1cc(-c2cnn3ccc(-c4cccs4)nc23)nc(N2CC[C@H]2C(=O)NC)c1` [Example 359, N—((R)-2-(diethylamino)-3-hydroxypropyl)-2-((S)-2-(methylcarbamoyl)azetidin-1-yl)-6-(5-(thiophen-2-yl)pyrazolo[1,5-a]pyrimidin-3-yl)isonicotinamide]: the IC50 is 0.35 nM. The same measure for `CCN(CC)CCNC(=O)c1cc(-c2cnn3ccc(-c4cccs4)nc23)nc(N2CC[C@H]2C(=O)NC)c1` [Example 360, (S)—N-(2-(diethylamino)ethyl)-2-(2-(methylcarbamoyl)azetidin-1-yl)-6-(5-(thiophen-2-yl)pyrazolo[1,5-a]pyrimidin-3-yl)isonicotinamide]: 2.98 nM; for `CCN(CC)[C@@H](C)CNC(=O)c1cc(-c2cnn3ccc(-c4ccc(F)s4)nc23)nc(N2CC[C@H]2C(=O)NC)c1` [Example 361, N—((S)-2-(diethylamino)propyl)-2-(5-(5-fluorothiophen-2-yl)pyrazolo[1,5-a]pyrimidin-3-yl)-6-((S)-2-(methylcarbamoyl)azetidin-1-yl)isonicotinamide]: 0.15 nM. With `CCN(CC)[C@@H](C)CNC(=O)c1cncc(-c2cnn3ccc(-c4cccs4)nc23)c1` [Example 362, (S)—N-(2-(diethylamino)propyl)-5-(5-(thiophen-2-yl)pyrazolo[1,5-a]pyrimidin-3-yl)nicotinamide], the IC50 was determined as 0.52 nM. The same measure for `CCN(CC)[C@@H](C)CNC(=O)c1cc(-c2cnn3ccc(-c4cccs4)nc23)ccn1` [Example 363, (S)—N-(2-(diethylamino)propyl)-4-(5-(thiophen-2-yl)pyrazolo[1,5-a]pyrimidin-3-yl)picolinamide]: 1.3 nM; for `CCN(CC)[C@@H](C)CNC(=O)c1cccc(-c2cnn3ccc(-c4cccs4)nc23)n1` [Example 364, (S)—N-(2-(diethylamino)propyl)-6-(5-(thiophen-2-yl)pyrazolo[1,5-a]pyrimidin-3-yl)picolinamide]: 715 nM.
